{
  "source": "patent US20240156996A1",
  "about": "“BIOCOMPATIBLE RADIONUCLIDE-CONTAINING COMPOSITIONS AND METHODS OF USE” (priority 2022, published 2024)",
  "assay": "Encapsulation efficiency of 225Ac within PLGA nanoparticles (γ-ray spectroscopy after washing)",
  "assay_type": "physicochemical",
  "details": "95:5, 90:10, 75:25 MeOH:DI H2O; FIG. 2",
  "protocol": "A double-emulsion solvent evaporation method was adapted for the synthesis of PLGA-chelator compound radioisotope complex. The main differences include: (1) using a cup-horn sonicator to generate emulsions and (2) decreasing the reagent volumes to minimize the generation of radiological waste. In a typical synthesis, 100 μL of PLGA dissolved in EtOAc at 40 mg/mL were mixed with 10 μL of 225Ac-chelator compound radioisotope complex in a polar solution (i.e., DI H2O, MeOH, or a mixture of both) within an Eppendorf tube. This mixture was sonicated for 30 s in a cup-horn sonicator to generate a water/oil emulsion. […]\nAs described above, PLGA nanoparticles were synthesized encapsulating free ^225Ac or ^225Ac-BLPhen complex in a methanol/deionized water (MeOH/DI H2O) mixture. […] The encapsulation efficiency of ^225Ac was determined after washing the PLGA nanoparticle suspensions three times with DI H2O. […] The PLGA nanoparticle suspension, the supernatant, and the Eppendorf tube used for sonication were assayed using γ-ray spectroscopy on a high purity germanium detector coupled to a PC-based multichannel analyzer to account for total radioactivity distribution. […] Energy and efficiency calibrations were determined by γ-ray sources traceable to the National Institute of Standards and Technology.",
  "data": [
    {"smiles": "[225Ac]", "note": "[^225Ac, actinium-225]", "values": [
      {"measurement": "effect of increasing the water content in the MeOH/DI H2O mixture on encapsulation efficiency within PLGA nanoparticles", "result": "decreased the encapsulation efficiency"}
    ]}
  ]
}
